The record followed here is patent US8404679B2, “Pyrrolidine derivatives as NK2 receptor antagonists” (Hoffmann-La Roche Inc., priority 2008, dated 2013).

This test has as its target T1, human NK2 receptor (Homo sapiens, UniProt P21452).
T1 construct: purchased Perkin Elmer biosignal Inc. 6110510
T1 sequence (P21452 1-398): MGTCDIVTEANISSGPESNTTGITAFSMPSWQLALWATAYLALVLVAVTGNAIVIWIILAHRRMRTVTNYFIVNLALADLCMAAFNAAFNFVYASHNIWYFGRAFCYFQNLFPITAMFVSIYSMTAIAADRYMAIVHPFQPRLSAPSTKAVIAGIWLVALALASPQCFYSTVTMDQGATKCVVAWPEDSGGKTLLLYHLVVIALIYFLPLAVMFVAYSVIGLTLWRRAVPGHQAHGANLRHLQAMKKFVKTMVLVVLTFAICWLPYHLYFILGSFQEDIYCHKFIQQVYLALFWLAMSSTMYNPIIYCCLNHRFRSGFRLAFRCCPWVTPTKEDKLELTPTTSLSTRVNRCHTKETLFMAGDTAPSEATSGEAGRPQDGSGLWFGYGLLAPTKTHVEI
Nature of the test: [3H]SR48968 competition binding assay. Particulars: [3H]SR48968 displacement, membranes of CHO cells stably expressing recombinant human NK2 receptor; Ki from IC50 by Cheng-Prussoff. The gist of the method:
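Membranes from CHO cells stably expressing recombinant human NK2 were incubated 75 min at RT with [3H]SR48968 at its KD and 10 compound concentrations (0.0003–10 μM) in Tris-HCl pH 7.4, MnCl2, chymostatin, BSA. Filter-bound radioactivity was counted; Hill-fitted IC50 converted to Ki via Cheng-Prusoff.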

By Ki is commonly meant a dissociation constant, usually derived from enzyme kinetics or from competition with a known ligand.

The structures appear in SMILES notation.

Regarding `COC1CCC(C(=O)N2C[C@H](c3ccc(Cl)c(Cl)c3)[C@@H](N(C)C(=O)Cc3ccc(F)cc3)C2)CC1` (mixture of isomers) [Example 127, N-[(3RS,4SR)-4-(3,4-Dichloro-phenyl)-1-(4-methoxy-cyclohexanecarbonyl)-pyrrolidin-3-yl]-2-(4-fluoro-phenyl)-N-methyl-acetamide], the Ki is 35 nM.

For the compound `COc1ccc(C(=O)N(C)[C@H]2CN(C(=O)C3CCN(CCCS(C)(=O)=O)CC3)C[C@@H]2c2ccc(Cl)cc2)cc1C(F)(F)F` (racemic) [Example 131, N-{(3RS,4SR)-4-(4-Chloro-phenyl)-1-[1-(3-methanesulfonyl-propyl)-piperidine-4-carbonyl]-pyrrolidin-3-yl}-4-methoxy-N-methyl-3-trifluoromethyl-benzamide], the Ki was 0.1 nM.

In the case of `COc1ccc(C(=O)N(C)[C@H]2CN(C(=O)C3CCN(C(=O)OC(C)(C)C)CC3)C[C@@H]2c2ccc(Cl)c(Cl)c2)cc1C(F)(F)F` (racemic) [Example 132, 4-{(3SR,4RS)-3-(3,4-Dichloro-phenyl)-4-[(4-methoxy-3-trifluoromethyl-benzoyl)-methyl-amino]-pyrrolidine-1-carbonyl}-piperidine-1-carboxylic acid tert-butyl ester], the inhibitory constant (Ki) amounted to 1.3 nM.

As for `COc1ccc(C(=O)N(C)[C@H]2CN(C(=O)C3CCNCC3)C[C@@H]2c2ccc(Cl)c(Cl)c2)cc1C(F)(F)F` (racemic) [Example 133, N-[(3RS,4SR)-4-(3,4-Dichloro-phenyl)-1-(piperidine-4-carbonyl)-pyrrolidin-3-yl]-4-methoxy-N-methyl-3-trifluoromethyl-benzamide], the Ki was determined as 0.2 nM.

In the case of `CN(C(=O)Cc1ccc(F)cc1)[C@H]1CN(C(=O)c2ccc(N3CCOCC3)cc2)C[C@@H]1c1ccc(Cl)c(Cl)c1` (racemic) [Example 134, N-[(3RS,4SR)-4-(3,4-Dichloro-phenyl)-1-(4-morpholin-4-yl-benzoyl)-pyrrolidin-3-yl]-2-(4-fluoro-phenyl)-N-methyl-acetamide], the Ki was 51.9 nM.

For `CN(C(=O)Cc1ccc(F)cc1)[C@H]1CN(C(=O)c2ccc(N3CCOCC3)nc2)C[C@@H]1c1ccc(Cl)c(Cl)c1` (racemic) [Example 135, N-[(3RS,4SR)-4-(3,4-Dichloro-phenyl)-1-(6-morpholin-4-yl-pyridine-3-carbonyl)-pyrrolidin-3-yl]-2-(4-fluoro-phenyl)-N-methyl-acetamide], the Ki was 85.4 nM.

`COc1ccc(C(=O)N(C)[C@H]2CN(C(=O)C3CCN(CC4CC4)CC3)C[C@@H]2c2ccc(Cl)c(Cl)c2)cc1C(F)(F)F` (racemic) [Example 138, N-[(3RS,4SR)-1-(1-Cyclopropylmethyl-piperidine-4-carbonyl)-4-(3,4-dichloro-phenyl)-pyrrolidin-3-yl]-4-methoxy-N-methyl-3-trifluoromethyl-benzamide]: the Ki worked out at 0.5 nM.

For `COc1ccc(C(=O)N(C)[C@H]2CN(C(=O)C3CCN(CCC(F)(F)F)CC3)C[C@@H]2c2ccc(Cl)c(Cl)c2)cc1C(F)(F)F` (racemic) [Example 139, N-{(3RS,4SR)-4-(3,4-Dichloro-phenyl)-1-[1-(3,3,3-trifluoro-propyl)-piperidine-4-carbonyl]-pyrrolidin-3-yl}-4-methoxy-N-methyl-3-trifluoromethyl-benzamide], the Ki turned out to be 0.6 nM.

In the case of `CCS(=O)(=O)N1CCC(C(=O)N2C[C@H](c3ccc(Cl)c(Cl)c3)[C@@H](N(C)C(=O)c3ccc(OC)c(C(F)(F)F)c3)C2)CC1` (racemic) [Example 140, N-[(3RS,4SR)-4-(3,4-Dichloro-phenyl)-1-(1-ethanesulfonyl-piperidine-4-carbonyl)-pyrrolidin-3-yl]-4-methoxy-N-methyl-3-trifluoromethyl-benzamide], the Ki amounted to 0.7 nM.

With `COc1ccc(C(=O)N(C)[C@H]2CN(C(=O)C3CCN(S(=O)(=O)C4CC4)CC3)C[C@@H]2c2ccc(Cl)c(Cl)c2)cc1C(F)(F)F` (racemic) [Example 141, N-[(3RS,4SR)-1-(1-Cyclopropanesulfonyl-piperidine-4-carbonyl)-4-(3,4-dichloro-phenyl)-pyrrolidin-3-yl]-4-methoxy-N-methyl-3-trifluoromethyl-benzamide], the Ki is 0.7 nM.

On to `COc1ccc(C(=O)N(C)[C@H]2CN(C(=O)C3CCN(CCC#N)CC3)C[C@@H]2c2ccc(Cl)c(Cl)c2)cc1C(F)(F)F` (racemic) [Example 142, N-[(3RS,4SR)-1-[1-(2-Cyano-ethyl)-piperidine-4-carbonyl]-4-(3,4-dichloro-phenyl)-pyrrolidin-3-yl]-4-methoxy-N-methyl-3-trifluoromethyl-benzamide], for which the Ki was determined as 0.4 nM.

Regarding `CN(C(=O)Cc1ccc(F)cc1)C1CN(C(=O)C2CCN(CC3CC3)CC2)CC1c1ccc(Cl)c(Cl)c1` (racemic) [Example 143, N-[(3RS,4RS)-1-(1-Cyclopropylmethyl-piperidine-4-carbonyl)-4-(3,4-dichloro-phenyl)-pyrrolidin-3-yl]-2-(4-fluoro-phenyl)-N-methyl-acetamide], the Ki came to 26.9 nM.

On to `COCCN1CCC(C(=O)N2C[C@H](c3ccc(Cl)c(Cl)c3)[C@@H](N(C)C(=O)c3ccc(OC)c(C(F)(F)F)c3)C2)CC1` (racemic) [Example 144, N-{(3RS,4SR)-4-(3,4-Dichloro-phenyl)-1-[1-(2-methoxy-ethyl)-piperidine-4-carbonyl]-pyrrolidin-3-yl}-4-methoxy-N-methyl-3-trifluoromethyl-benzamide], for which the Ki is 0.9 nM.

As to `CCOC(=O)N1CCC(C(=O)N2C[C@H](c3ccc(Cl)c(Cl)c3)[C@@H](N(C)C(=O)c3ccc(OC)c(C(F)(F)F)c3)C2)CC1` (racemic) [Example 145, 4-{(3SR,4RS)-3-(3,4-Dichloro-phenyl)-4-[(4-methoxy-3-trifluoromethyl-benzoyl)-methyl-amino]-pyrrolidine-1-carbonyl}-piperidine-1-carboxylic acid ethyl ester], the Ki worked out at 1.1 nM.

As for `COc1ccc(C(=O)N(C)[C@H]2CN(C(=O)c3ccc(-c4nc(C)no4)cc3)C[C@@H]2c2ccc(Cl)c(Cl)c2)cc1C(F)(F)F` (racemic) [Example 147, N-{(3RS,4SR)-4-(3,4-Dichloro-phenyl)-1-[4-(3-methyl-[1,2,4]oxadiazol-5-yl)-benzoyl]-pyrrolidin-3-yl}-4-methoxy-N-methyl-3-trifluoromethyl-benzamide], the inhibition constant (Ki) was 1.4 nM.

Turning to `C=C(F)CN1CCC(C(=O)N2C[C@H](c3ccc(Cl)c(Cl)c3)[C@@H](N(C)C(=O)c3ccc(OC)c(C(F)(F)F)c3)C2)CC1` (racemic) [Example 148, N-{(3RS,4SR)-4-(3,4-Dichloro-phenyl)-1-[1-(2-fluoro-allyl)-piperidine-4-carbonyl]-pyrrolidin-3-yl}-4-methoxy-N-methyl-3-trifluoromethyl-benzamide], the Ki is 0.5 nM.

For `CN(C(=O)Cc1ccc(F)c(F)c1)[C@H]1CN(C(=O)C2CCN(CC3CC3)CC2)C[C@@H]1c1ccc(Cl)c(Cl)c1` (racemic) [Example 150, N-[(3RS,4SR)-1-(1-Cyclopropylmethyl-piperidine-4-carbonyl)-4-(3,4-dichloro-phenyl)-pyrrolidin-3-yl]-2-(3,4-difluoro-phenyl)-N-methyl-acetamide], the Ki was determined as 19.8 nM.

With `CN(C(=O)CC1CCCC1)[C@H]1CN(C(=O)C2CCN(CC3CC3)CC2)C[C@@H]1c1ccc(Cl)c(Cl)c1` (racemic) [Example 151, 2-Cyclopentyl-N-[(3RS,4SR)-1-(1-cyclopropylmethyl-piperidine-4-carbonyl)-4-(3,4-dichloro-phenyl)-pyrrolidin-3-yl]-N-methyl-acetamide], the Ki was 6.7 nM.

Consider `CN(C(=O)Cc1cccc(F)c1F)[C@H]1CN(C(=O)C2CCN(CC3CC3)CC2)C[C@@H]1c1ccc(Cl)c(Cl)c1` (racemic) [Example 152, N-[(3RS,4SR)-1-(1-Cyclopropylmethyl-piperidine-4-carbonyl)-4-(3,4-dichloro-phenyl)-pyrrolidin-3-yl]-2-(2,3-difluoro-phenyl)-N-methyl-acetamide], for which the Ki came out at 23 nM.

For `CN(C(=O)Cc1ccc(Cl)cc1)[C@H]1CN(C(=O)C2CCN(CC3CC3)CC2)C[C@@H]1c1ccc(Cl)c(Cl)c1` (racemic) [Example 158, 2-(4-Chloro-phenyl)-N-[(3RS,4SR)-1-(1-cyclopropylmethyl-piperidine-4-carbonyl)-4-(3,4-dichloro-phenyl)-pyrrolidin-3-yl]-N-methyl-acetamide], the Ki came to 25.4 nM.

With `CC(C(=O)N(C)[C@H]1CN(C(=O)C2CCN(CC3CC3)CC2)C[C@@H]1c1ccc(Cl)c(Cl)c1)c1ccc(F)cc1` (mixture of isomers) [Example 159, N-[(3RS,4SR)-1-(1-Cyclopropylmethyl-piperidine-4-carbonyl)-4-(3,4-dichloro-phenyl)-pyrrolidin-3-yl]-2-(4-fluoro-phenyl)-N-methyl-propionamide], the inhibition constant Ki came out at 43.3 nM.

Turning to `CN(C(=O)c1ccc(Cl)c(C(F)(F)F)c1)[C@H]1CN(C(=O)C2CCNCC2)C[C@@H]1c1ccc(Cl)cc1` (racemic) [Example 160, 4-Chloro-N-[(3RS,4SR)-4-(4-chloro-phenyl)-1-(piperidine-4-carbonyl)-pyrrolidin-3-yl]-N-methyl-3-trifluoromethyl-benzamide], the Ki was found to be 5 nM.
